Reference: US20160009674A1, “PROTOTYPICAL BRAIN PROTECTIVE ACTIVITY OF TETRAHYDRO-N-METHYL-2,2-DIPHENYL-3-FURANOMETHANAMINE (AE37MET)” (priority 2013, published 2016)
Entries after “also recorded” stand apart in the source; their conditions may differ.

Columns and labels:
[1] = molecular target: N-methyl-D-aspartate (NMDA) receptors; assay: NMDA receptor affinity; type: binding
[2] = molecular target: T1, sigma-1 (Homo sapiens, UniProt Q99720); assay: sigma-1 agonistic activity
[3] = system: brain ischemia; assay: brain ischemia in mice; type: in vivo; settings: for neuroprotection against mice brain ischemia: dose not given
[4] = system: NMDA (10 μM) induced functional excitotoxicity, hippocampal slices; assay: NMDA (10 μM) induced functional excitotoxicity in rat hippocampal slices; settings: for neuroprotection against NMDA induced functional excitotoxicity: hippocampal slices
[5] = system: hippocampal slices; assay: in vitro evaluation of the compounds' own functional excitotoxicity on hippocampal slices
[6] = molecular target: T2, M2 muscarinic receptors (Homo sapiens, UniProt P08172); assay: M2 muscarinic receptor affinity; type: binding
T2 sequence (P08172 1-466): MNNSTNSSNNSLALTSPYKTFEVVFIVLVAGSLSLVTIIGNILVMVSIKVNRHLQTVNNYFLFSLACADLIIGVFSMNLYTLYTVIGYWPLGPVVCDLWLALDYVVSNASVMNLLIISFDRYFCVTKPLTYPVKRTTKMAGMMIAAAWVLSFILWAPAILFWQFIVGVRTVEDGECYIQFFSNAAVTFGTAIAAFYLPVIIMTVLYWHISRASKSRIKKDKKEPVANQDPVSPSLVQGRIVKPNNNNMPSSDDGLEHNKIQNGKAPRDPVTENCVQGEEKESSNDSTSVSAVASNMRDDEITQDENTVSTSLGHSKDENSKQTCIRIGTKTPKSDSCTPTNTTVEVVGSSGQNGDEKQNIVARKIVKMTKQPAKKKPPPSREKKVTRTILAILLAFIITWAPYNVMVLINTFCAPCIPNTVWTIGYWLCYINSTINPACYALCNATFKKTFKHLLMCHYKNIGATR

[7] = system: sodium channels; assay: sodium channel affinity; type: binding
[8] = molecular target: T3, M3 muscarinic receptors (Cavia porcellus, UniProt H0W1Z3); assay: functional M3 antagonism, guinea pig ileum
T3 construct: from tissue; host or cells: guinea pig ileum
T3 sequence (H0W1Z3 1-590): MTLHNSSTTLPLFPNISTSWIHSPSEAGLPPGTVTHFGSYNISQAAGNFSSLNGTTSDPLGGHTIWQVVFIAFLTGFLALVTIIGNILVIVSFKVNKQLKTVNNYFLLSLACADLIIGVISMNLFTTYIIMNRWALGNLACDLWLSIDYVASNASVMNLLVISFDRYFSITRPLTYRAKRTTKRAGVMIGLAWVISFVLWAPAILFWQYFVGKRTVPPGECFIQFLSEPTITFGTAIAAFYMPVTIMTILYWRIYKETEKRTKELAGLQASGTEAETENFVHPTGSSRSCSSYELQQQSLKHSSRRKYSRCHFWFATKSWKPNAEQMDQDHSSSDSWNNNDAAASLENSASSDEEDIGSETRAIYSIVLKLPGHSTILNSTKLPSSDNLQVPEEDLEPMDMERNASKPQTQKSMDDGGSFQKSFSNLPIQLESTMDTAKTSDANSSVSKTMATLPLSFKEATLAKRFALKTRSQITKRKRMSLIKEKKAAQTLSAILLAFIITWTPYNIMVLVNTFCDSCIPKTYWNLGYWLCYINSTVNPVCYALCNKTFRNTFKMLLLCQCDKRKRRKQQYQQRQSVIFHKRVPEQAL

[9] = system: PTZ convulsions; assay: Pentylenetetrazole (PTZ) convulsions in mice; type: in vivo; settings: 10 to 30 mg/kg po
[10] = molecular target: T1, sigma-1; assay: sigma-1 receptor affinity (binding)
[11] = memory perturbations in mice; settings: 0.1 to 45 mg/kg, per os
[12] = molecular target: T4, M2 muscarinic receptors (Cavia porcellus, UniProt H0VRN8); assay: functional M2 antagonism, guinea pig left atria
T4 construct: from tissue; host or cells: guinea pig left atria
T4 sequence (H0VRN8 1-466): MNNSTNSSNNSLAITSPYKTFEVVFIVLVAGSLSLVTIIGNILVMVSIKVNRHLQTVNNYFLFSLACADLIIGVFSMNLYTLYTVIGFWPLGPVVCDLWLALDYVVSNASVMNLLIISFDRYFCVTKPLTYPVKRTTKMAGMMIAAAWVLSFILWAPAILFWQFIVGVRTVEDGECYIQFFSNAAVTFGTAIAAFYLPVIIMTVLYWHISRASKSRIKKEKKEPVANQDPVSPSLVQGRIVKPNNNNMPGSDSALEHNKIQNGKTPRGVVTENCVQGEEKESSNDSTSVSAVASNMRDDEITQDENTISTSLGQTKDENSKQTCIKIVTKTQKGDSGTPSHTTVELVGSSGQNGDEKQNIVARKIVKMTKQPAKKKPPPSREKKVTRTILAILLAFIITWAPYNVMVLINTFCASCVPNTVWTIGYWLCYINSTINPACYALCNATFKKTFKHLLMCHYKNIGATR

[13] = system: mitochondrial toxicity of pentylenetetrazole (PTZ); assay: latency of lethality of pentylenetetrazole (PTZ) in mice; type: in vivo; settings: PTZ 130 mg/kg ip
[14] = system: immobility; assay: forced swimming (Porsolt) test in mice; type: in vivo; settings: from 5 mg/kg po
[15] = system: Aβ25-35 induced amnesia and neurotoxicity; assay: Aβ25-35 induced amnesia and neurotoxicity in mice (Y-maze, step-through); type: in vivo
[16] = system: M2 and M3 muscarinic receptors in the periphery; assay: antagonism of peripheral M2 and M3 muscarinic receptors in mice; type: in vivo; settings: from 1 to 10 mg/kg ip
[17] = system: MES convulsions; assay: Maximal Electrochoc Seizures (MES) in mice; type: in vivo; settings: 10 to 30 mg/kg po
[18] = molecular target: sigma-2 receptors (Homo sapiens, UniProt Q5BJF2); assay: sigma-2 receptor affinity (binding)
Chain of sigma-2 receptors (Q5BJF2 whole entry): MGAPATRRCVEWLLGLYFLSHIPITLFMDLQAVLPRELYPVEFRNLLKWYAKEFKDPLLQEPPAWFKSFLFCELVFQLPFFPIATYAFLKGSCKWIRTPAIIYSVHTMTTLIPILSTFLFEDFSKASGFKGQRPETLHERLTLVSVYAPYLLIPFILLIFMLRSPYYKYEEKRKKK

[19] = molecular target: M3 muscarinic receptors (Homo sapiens, UniProt P20309); assay: M3 muscarinic receptor affinity; type: binding
Chain of M3 muscarinic receptors (Homo sapiens, UniProt P20309) (P20309 whole entry): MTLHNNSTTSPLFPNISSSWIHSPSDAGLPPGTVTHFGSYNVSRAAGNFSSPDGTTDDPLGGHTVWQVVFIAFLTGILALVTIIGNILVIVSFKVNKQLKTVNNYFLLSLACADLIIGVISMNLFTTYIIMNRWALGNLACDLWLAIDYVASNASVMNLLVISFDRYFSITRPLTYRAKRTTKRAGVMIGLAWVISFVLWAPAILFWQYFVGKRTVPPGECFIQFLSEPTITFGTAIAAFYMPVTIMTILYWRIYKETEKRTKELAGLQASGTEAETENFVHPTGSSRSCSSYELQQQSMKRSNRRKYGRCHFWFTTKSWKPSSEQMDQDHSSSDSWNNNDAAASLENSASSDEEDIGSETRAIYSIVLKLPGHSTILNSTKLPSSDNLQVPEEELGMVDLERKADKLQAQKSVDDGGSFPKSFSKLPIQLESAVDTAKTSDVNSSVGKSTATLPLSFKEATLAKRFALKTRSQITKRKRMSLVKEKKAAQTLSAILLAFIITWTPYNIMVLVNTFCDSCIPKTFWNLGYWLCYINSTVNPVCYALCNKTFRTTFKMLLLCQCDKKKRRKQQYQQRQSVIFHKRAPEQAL

T1 sequence (Q99720 whole entry): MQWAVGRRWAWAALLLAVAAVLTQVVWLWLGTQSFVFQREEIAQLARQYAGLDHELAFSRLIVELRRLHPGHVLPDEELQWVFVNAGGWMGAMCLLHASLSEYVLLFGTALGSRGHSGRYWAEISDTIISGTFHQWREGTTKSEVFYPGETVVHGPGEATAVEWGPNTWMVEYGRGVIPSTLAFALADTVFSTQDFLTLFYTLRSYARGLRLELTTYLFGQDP

## CN(C)CC1COC(c2ccccc2)(c2ccccc2)C1 (stereo not shown) [AE14, tetrahydro-N,N-dimethyl-5,5-diphenyl-3-furanomethanamine]
[1]
  IC50: > 10 µM
[2]
  sigma-1 agonistic activity: high and selective sigma-1 agonistic activity
[3]
  neuroprotection against mice brain ischemia: inactive
[4]
  neuroprotection against NMDA induced functional excitotoxicity: no significant neuroprotection
[5]
  excitotoxic effects of the compound itself (functional excitotoxicity): significant excitoneurotoxic effects

## CN(C)CC1CCOC1(c1ccccc1)c1ccccc1 (stereo not shown) [AE37, tetrahydro-N,N-dimethyl-2,2-diphenyl-3-furanomethanamine]
[1]
  IC50: 8 µM
[2]
  sigma-1 agonistic activity: sub-micromolar and selective sigma-1 agonism
[3]
  neuroprotection against mice brain ischemia: inactive
[4]
  neuroprotection against NMDA induced functional excitotoxicity: no significant neuroprotection
[5]
  excitotoxic effects of the compound itself (functional excitotoxicity): significant excitoneurotoxic effects

## CNCC1CCOC1(c1ccccc1)c1ccccc1 (stereo not shown) [AE37Met, tetrahydro-N-methyl-2,2-diphenyl-3-furanomethanamine]
[1]
  IC50: 1 µM
[6]
  IC50: 2770 nM
[7]
  IC50: 5.7 µM
[8]
  concentration from which significant functional antagonism (M3): ≥ 3.0 µM
[9]
  protection against PTZ convulsions: protected; also recorded: high protective effects
[10]
  IC50: 670 nM
[11]
  memory perturbations: no memory perturbations
[12]
  concentration from which significant functional antagonism (M2): ≥ 3.0 µM
[13]; AE37Met 3.10 mg/kg po (so in the source)
  increase of latency of lethality of PTZ: 3.10 fold
[13]; AE37Met 30 mg/kg po
  increase of latency of lethality of PTZ: 18 fold
[3]; 5 to 15 mg/kg ip
  protection against brain ischemia: protected; also recorded: significant antagonism
[14]
  anti-immobility activity in the Porsolt test: high anti-immobility activity
[15]; 0.3 to 3 mg/kg ip, mice
  antagonism of Aβ25-35 induced amnesia and neurotoxicity: antagonized
[15]; co-administered with Rivastigmine or Donepezil, Y-maze, step-through, intracerebral soluble amyloid 25-35, mice
  antiamnesic action on co-administration with IAChEases: higher than the sum of the antiamnesic effects
[16]
  antagonistic effects on M2 and M3 muscarinic receptors in the periphery: antagonistic effects
[4]; AE37Met 1 to 10 μM, rat hippocampal slices
  antagonistic effects against NMDA induced functional excitotoxicity: first antagonistic effects
[4]
  neuroprotection against NMDA induced functional excitotoxicity: high dose (concentration)-dependant neuroprotection
[17]
  protection against MES convulsions: protected; also recorded: high protective effects
[5]
  excitotoxic effects of the compound itself (functional excitotoxicity): no excitotoxic effects
[18]
  IC50: > 10 µM
[19]
  IC50: 4.35 µM
